Tested on: C57BL/6-mice
Protocol: Animal experiments: • General: 10-12 week old male C57BL/6-mice were kept at normoxia or in a hypoxia chamber at 10% O2 for five weeks and got either regular chow or chow containing 0.2% Li2CO3. • IFT88 knock-out in mice: IFT88-flox mice were bred with Cdh5-cre mice. 2 weeks prior to treatment, IFT88fl/fl, Cdh5-cre+ and Cdh-cre- mice were intraperitoneally injected with tamoxifen (75 mg/kg body weight) to induce knock-out. • Echocardiography: Mice were anesthetized with initially 3% isoflurane. The animals are fixed in dorsal position and their thoracal hair was removed with depilatory cream. Pulmonary artery flow, tricuspid valve movement and other echocardiographic parameters were assessed with the echo device Vevo3100. • RVSP measurement: After five weeks, the mice got an intraperitoneal injection of ketamin (200 mg/kg bodyweight (bw)) and xylazine (10 mg/kg bw). A 2F microtip millar catheter was advanced into the right ventricle via the jugularis vein to measure right ventricle systolic pressure (RVSP).

lithium carbonate [Li2CO3]
right ventricular systolic blood pressure (chow containing 0.2% Li2CO3, hypoxia 10% O2 for five weeks): reduced the increase
development of a PH under chronic hypoxia (food with 0.2% Li2CO3, 10% O2 for 5 weeks, Fig. 1D): prevents the development of a PH

— patent EP4218772A1, “LITHIUM SALT FOR USE IN TREATMENT OF PULMONARY HYPERTENSION” (Charité - Universitätsmedizin Berlin, priority 2022, dated 2023)
